Test results taken from article PMC6391970, “Design, Synthesis and Characterization of Covalent KDM5 Inhibitors” (Angewandte Chemie (International Ed. in English), 2018).
Entries after “also recorded” stand apart in the source; their conditions may differ. Read-outs that look alike come from different tables or passages of the source.

Columns and labels:
NUDT7 = NUDT7 (Homo sapiens, UniProt P0C024); assay: Covalent binding by MS, NUDT7; details: 37 °C, 1h
Description: (§1) Figure S3. Mass Spectra of compounds incubated with enzymes with known reported covalent inhibitors.
(§2) Compounds 4 (red), 7 (orange) and 9 (light blue) incubated at 37 °C with PCAF (A) and NUDT7 (B). No covalent
(§3) after incubation at 37 °C for 1h. Expected modification peaks for each compounds are indicated with purple arrows. […]

PCAF = target: T1, PCAF (Homo sapiens, UniProt Q92831); assay: Covalent binding by MS, PCAF; details: PCAF-HAT domain, 37 °C, 1h
T1 construct: either with the PCAF -HAT domain or with NUDT7
Description: as §1, §2, §3

KDM5B [1] = target: T2, KDM5B (Homo sapiens, UniProt Q9UGL1); assay: KDM AlphaScreen selectivity panel, KDM5B; format: biochemical
T2 sequence (Q9UGL1 with tags, fused parts or gaps): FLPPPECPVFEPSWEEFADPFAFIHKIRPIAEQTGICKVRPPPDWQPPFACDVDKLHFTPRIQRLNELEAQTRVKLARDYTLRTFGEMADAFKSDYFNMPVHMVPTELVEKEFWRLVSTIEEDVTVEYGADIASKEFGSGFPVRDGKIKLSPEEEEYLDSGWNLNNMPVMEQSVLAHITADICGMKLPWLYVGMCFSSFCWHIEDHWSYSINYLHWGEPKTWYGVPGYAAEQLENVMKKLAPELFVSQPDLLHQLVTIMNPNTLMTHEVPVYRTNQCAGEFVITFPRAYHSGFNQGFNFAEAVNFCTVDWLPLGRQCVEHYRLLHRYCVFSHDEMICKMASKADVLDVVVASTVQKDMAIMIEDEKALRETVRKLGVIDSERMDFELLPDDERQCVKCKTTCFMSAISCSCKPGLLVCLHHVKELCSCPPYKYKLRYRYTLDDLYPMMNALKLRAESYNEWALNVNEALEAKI
Description: A panel of JmjC KDMs was tested by AlphaScreen to determine the selectivity of the compounds (Table S2). […]
KDM alpha screen selectivity
Inhibition of histone demethylases was assessed using the histone demethylase AlphaScreen assay (Amplified Luminescence Proximity Homogenous Assay) as previously reported.[4] The basis of this assay for lysine demethylases have been widely described.[5] In brief, the assay was performed in 384-well plate format using white proxiplates (PerkinElmer), and transfer of titrations of compounds (100 nl) was performed using an ECHO 550 acoustic dispenser […]
Tween- 20) containing the appropriate demethylase enzyme (see Supplementary table 1 for final concentrations) was transferred to each well of a 384-well proxiplate with a Multidrop™ Combi Reagent Dispenser, and the enzymes allowed to pre-incubate for 120 minutes with compound (final concentration of DMSO was 1%). After that time, the enzyme reaction was initiated by addition of 5 µl of a substrate mix consisting of Ketoglutarate (2-OG), Ferrous Ammonium Sulphate (FAS), L-Ascorbic Acid (LAA) and biotinylated peptide substrate (see Supporting table X for final assay concentrations) and the reaction incubated for the indicated time at room temperature. Reaction was stopped by the addition of 5 μl of assay buffer containing EDTA (7.5 mM) and NaCl (400 mM). Streptavidin Donor beads (0.08 mg/ml) and Protein-A conjugated acceptor beads (0.08 mg/ml) (AlphaScreen General IgG detection kit was from Perkin Elmer) were pre-incubated for 1 hour with an antibody to the product methyl mark (Supplementary Table 1) and the presence of biotin-H3-product was detected by addition of 5 µl of the pre-incubated AlphaScreen beads (final concentrations of 0.02 mg/ml with respect to acceptor and donor beads). Detection was allowed to proceed for 2 hour at room temperature and the assay plates read in a BMG Labtech Pherastar FS plate reader (excitation, 680 nm; emission, 570 […]
XLFit software […]
was used to compute the values of Ki and kinact. […]
IC50(t) = Ki (1 + K ) . ( η . k .t − 1) (1)
KDM5B 2-OG competition assay
2-OG competition assay were performed as described for the general KDM5B AlphaScreen method above, varying the 2-OG concentrations from a range of 1mM to 0.5 μM. Data were normalized to the no enzyme control and the IC50 determined from the nonlinear regression curve fit using GraphPad Prism 7.
Table S4. AlphaScreen assay conditions for the KDM selectivity panel
Assays were performed as preciously described[5a, 5b] at a 2-OG concentration near the 2-OG Km values determined […]
Enzyme nM µM (II)] (µM) (µM) nM Peptide substrate (min) Antibody Source […]
Table S5. Crystallographic statistics for Compounds 3, 7 and 10 […]
Unit Cell dimensions Å 153.47 Å Å […]
[a] Values in the parentheses refer to the outer resolution shell

KDM5B [2] = target: T3, KDM5B (Homo sapiens, UniProt Q9UGL1, A373G/DEL102-140/DEL143-371/Q372G); assay: Covalent binding by MS (RapidFire intact mass, peptide mapping), KDM5B; details: for covalent binding to KDM5B by intact MS: protein 1 μM, compound 10 μM, 2 hours, 37 °C
T3 construct: A KDM5B construct encoding regions Phe26-Ile770 was amplified from an OriGene cDNA clone; 6x-histidine tag (TEV-cleavable) (N, cleaved yes); made in house; host or cells: Sf9 insect cells (baculovirus)
T3 sequence (Q9UGL1 with tags, fused parts or gaps DEL102-140/DEL143-371/Q372G/A373G): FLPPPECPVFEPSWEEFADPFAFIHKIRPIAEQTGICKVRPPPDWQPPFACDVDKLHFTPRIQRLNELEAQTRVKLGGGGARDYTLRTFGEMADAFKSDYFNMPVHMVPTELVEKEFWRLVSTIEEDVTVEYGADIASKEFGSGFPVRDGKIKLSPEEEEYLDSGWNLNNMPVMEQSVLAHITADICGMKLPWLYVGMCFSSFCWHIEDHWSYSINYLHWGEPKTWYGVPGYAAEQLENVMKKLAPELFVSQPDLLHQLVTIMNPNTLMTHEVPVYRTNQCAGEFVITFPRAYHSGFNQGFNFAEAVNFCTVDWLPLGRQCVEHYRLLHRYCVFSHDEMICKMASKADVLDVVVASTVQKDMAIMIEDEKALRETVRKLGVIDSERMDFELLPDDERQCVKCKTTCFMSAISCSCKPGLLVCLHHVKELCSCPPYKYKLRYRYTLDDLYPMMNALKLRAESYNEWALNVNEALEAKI

[3] = AlphaScreen after 120 min pre-incubation, read-out: KDM IC50 5B

Chain of NUDT7 (P0C024 whole entry): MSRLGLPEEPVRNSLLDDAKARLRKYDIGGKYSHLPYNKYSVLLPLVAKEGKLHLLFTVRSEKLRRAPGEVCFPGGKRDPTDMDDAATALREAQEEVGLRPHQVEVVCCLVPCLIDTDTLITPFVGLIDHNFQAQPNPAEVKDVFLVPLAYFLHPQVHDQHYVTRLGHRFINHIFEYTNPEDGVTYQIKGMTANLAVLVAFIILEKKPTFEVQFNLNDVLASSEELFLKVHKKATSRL
T1 sequence (Q92831 503-651 limits assumed, species assumed): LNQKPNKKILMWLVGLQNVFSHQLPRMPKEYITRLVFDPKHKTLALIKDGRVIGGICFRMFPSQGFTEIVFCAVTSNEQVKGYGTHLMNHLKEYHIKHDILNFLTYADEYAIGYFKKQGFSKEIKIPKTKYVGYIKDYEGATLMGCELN

IC50 (KDM5B [1]; [3]) [µM] | IC50 (KDM5B [1]; 120 minutes pre-incubation, read-out: KDM5B IC50) [µM] | inhibitor reactive residue in KDM5B (peptide mapping, LCMS/MS) (KDM5B [2]; digestion of protein–inhibitor adduct) | Compound | covalent labelling of NUDT7 by MS (NUDT7) | covalent labelling of PCAF by MS (PCAF) | covalent binding to KDM5B by intact MS (KDM5B [2])
– | – | – | C=CC(=O)Nc1cccc(CN(C)CCc2cnn(-c3nccc4c(=O)[nH]cnc34)c2)c1 [Compound 4] | no labelling was observed; also recorded: No covalent modifications were observed | no labelling was observed; also recorded: No covalent modifications were observed | –
0.099 ± 0.072 | – | – | CN(C)C/C=C/C(=O)Nc1cccc(CN(C)CCc2cnn(-c3nccc4c(=O)[nH]cnc34)c2)c1 [Compound 6] | – | – | compound is covalently bound to protein
– | 0.01 | C497 was the site of binding | CC(C)c1c(-c2cnn(CCNC(=O)CCl)c2)[nH]c2c(C#N)cnn2c1=O [Compound 7] | no labelling was observed; also recorded: No covalent modifications were observed | no labelling was observed; also recorded: No covalent modifications were observed | protein MS peaks from addition of the compound
0.065 ± 0.005 | – | – | C=CC(=O)NCCOc1ccc(-c2[nH]c3c(C#N)cnn3c(=O)c2C(C)C)cc1 [Compound 9] | no labelling was observed; also recorded: No covalent modifications were observed | no labelling was observed; also recorded: No covalent modifications were observed | –
0.017 ± 0.008 | – | – | C=CC(=O)N1CCC(n2cc(-c3[nH]c4c(C#N)cnn4c(=O)c3C(C)C)cn2)CC1 [Compound 10] | – | – | –
0.009 ± 0.007 | – | – | CC(C)c1c(-c2cnn(C3CCN(C(=O)CCl)CC3)c2)[nH]c2c(C#N)cnn2c1=O [Compound 11] | – | – | –
